What was measured:
Type in all cases: in vitro ADME
[1] = Assay 1. Stability in Simulated Gastric Fluid (SGF)
Procedure, shortened: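 Degradation rate from LC/MS of acetonitrile-quenched aliquots (T0, then regular intervals). Fresh SGF (pH 1.6 NaCl, FaSSIF powder, pepsin 0.1 mg/mL) held compound at 1 μM final, 37° C; 1 mM DMSO stock.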

[2] = Assay 2. Stability in Simulated Intestinal Fluid (SIF); details: SIF pH 6.7 with pancreatin, 1 μM, 37° C.
Procedure, shortened: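 Degradation rates came from LC/MS of acetonitrile-quenched samples drawn at intervals, starting at T0. The medium was freshly made pH 6.7 FaSSIF containing pancreatin, and test compound was present at 1 µM while being shaken at 37 °C.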

[3] = Assay 3. In vitro Colonic Material Stability Assay; details: colonic material slurry, anaerobic, 1 or 10 μM
[4] = SGF pH 1.6 with pepsin, 1 μM, 37° C.

| SMILES | Assay 1 (SGF) (% Remaining @ 1 hour) [1, 4] | Assay 2 (SIF) (% @ Remaining 4 hours) [2] | Assay 3 (% Remaining at 24 h) [3] | Assay 1 (SGF) (% Remaining @ 1 hour) ([1]; Run 1, SGF) | Assay 1 (SGF) (% Remaining @ 1 hour) ([1]; Run 2, SGF) |
| --- | --- | --- | --- | --- | --- |
| CC(=O)O[C@H]1O[C@H](C(=O)O)[C@@H](OC(C)=O)[C@H](OC(C)=O)[C@H]1OC(C)=O [Compound 163, (2S,3S,4S,5R,6R)-3,4,5,6-tetraacetoxytetrahydro-2H-pyran-2-carboxylic acid] | C (>75% of the tested compound remaining) | C (>75% of the tested compound remaining) | B (25-75% of the tested compound remaining) | – | – |
| CCC(=O)O[C@@H]1[C@@H](OC(=O)CC)[C@H](OC(=O)/C=C/c2c[nH]c3ccccc23)OC[C@H]1OC(=O)CC [Compound 91, (2S,3R,4S,5R)-3,4,5-tris(propanoyloxy)oxan-2-yl (2E)-3-(1H-indol-3-yl)prop-2-enoate] | C (>75% of the tested compound remaining) | A (<25% of the tested compound remaining) | A (<25% of the tested compound remaining) | – | – |
| CCC(=O)O[C@@H]1[C@@H](OC(=O)CC)[C@@H](OC(=O)CCc2c[nH]c3ccccc23)OC[C@@H]1OC(=O)CC [Compound 126, (2R,3R,4S,5S)-3,4,5-tris(propanoyloxy)oxan-2-yl 3-(1H-indol-3-yl)propanoate] | C (>75% of the tested compound remaining) | A (<25% of the tested compound remaining) | A (<25% of the tested compound remaining) | – | – |
| CCCC(=O)O[C@@H]1[C@@H](OC(=O)CCC)[C@H](Oc2ccccc2C(=O)O)OC[C@H]1OC(=O)CCC [Compound 186, 2-{[(2S,3R,4S,5R)-3,4,5-tris(butanoyloxy)oxan-2-yl]oxy}benzoic acid] | C (>75% of the tested compound remaining) | A (<25% of the tested compound remaining) | A (<25% of the tested compound remaining) | – | – |
| O=C(CCc1c[nH]c2ccccc12)O[C@@H]1O[C@H](C(=O)O)[C@@H](OC(=O)CCc2c[nH]c3ccccc23)[C@H](OC(=O)CCc2c[nH]c3ccccc23)[C@H]1OC(=O)CCc1c[nH]c2ccccc12 [Compound 49, (2S,3S,4S,5R,6S)-3,4,5,6-tetrakis({[3-(1H-indol-3-yl)propanoyl]oxy})oxane-2-carboxylic acid] | – | A (<25% of the tested compound remaining) | A (<25% of the tested compound remaining) | B (25-75% of the tested compound remaining) | C (>75% of the tested compound remaining) |
| CCC(=O)O[C@H]1[C@H](OC(=O)CCc2c[nH]c3ccccc23)OC[C@@H](OC(=O)CC)[C@H]1OC(=O)CC [Compound 98, (2S,3R,4R,5R)-3,4,5-tris(propanoyloxy)oxan-2-yl 3-(1H-indol-3-yl)propanoate] | B (25-75% of the tested compound remaining) | A (<25% of the tested compound remaining) | A (<25% of the tested compound remaining) | – | – |
| CCC(=O)O[C@@H]1[C@@H](OC(=O)CC)[C@@H](OC(=O)Cc2c[nH]c3ccccc23)OC[C@H]1OC(=O)CC [Compound 117, (2R,3R,4S,5R)-2-{[2-(1H-indol-3-yl)acetyl]oxy}-4,5-bis(propanoyloxy)oxan-3-yl propanoate] | C (>75% of the tested compound remaining) | A (<25% of the tested compound remaining) | A (<25% of the tested compound remaining) | – | – |
| CCCC(=O)O[C@@H]1[C@@H](OC(=O)CCC)[C@@H](OC)OC[C@H]1OC(=O)CCC [Compound 71, (2S,3R,4S,5R)-4,5-bis(butanoyloxy)-2-methoxyoxan-3-yl butanoate] | B (25-75% of the tested compound remaining) | A (<25% of the tested compound remaining) | A (<25% of the tested compound remaining) | – | – |
| O=C(CCc1c[nH]c2ccccc12)O[C@H]1OC[C@H](OC(=O)CCc2c[nH]c3ccccc23)[C@H](OC(=O)CCc2c[nH]c3ccccc23)[C@H]1OC(=O)CCc1c[nH]c2ccccc12 [Compound 149, (2R,3R,4S,5S)-3,4,5-tris({[3-(1H-indol-3-yl)propanoyl]oxy})oxan-2-yl 3-(1H-indol-3-yl)propanoate] | B (25-75% of the tested compound remaining) | A (<25% of the tested compound remaining) | A (<25% of the tested compound remaining) | – | – |
| CCC(=O)Oc1cc(OC(=O)CC)c2c(c1)O[C@H](c1ccc(OC(=O)CC)c(OC(=O)CC)c1)[C@H](OC(=O)CC)C2 [Compound 194, (2R,3R)-2-[3,4-bis(propanoyloxy)phenyl]-5,7-bis(propanoyloxy)-3,4-dihydro-2H-1-benzopyran-3-yl propanoate] | B (25-75% of the tested compound remaining) | A (<25% of the tested compound remaining) | A (<25% of the tested compound remaining) | – | – |
| CCC(=O)OC[C@H]1O[C@@H](OC(=O)Cc2c[nH]c3ccccc23)[C@H](OC(=O)CC)[C@@H](OC(=O)CC)[C@@H]1OC(=O)CC [Compound 111, [(2R,3R,4S,5R,6S)-6-{[2-(1H-indol-3-yl)acetyl]oxy}-3,4,5-tris(propanoyloxy)oxan-2-yl]methyl propanoate] | C (>75% of the tested compound remaining) | A (<25% of the tested compound remaining) | A (<25% of the tested compound remaining) | – | – |
| CCC(=O)O[C@@H]1O[C@H](C(=O)O)[C@@H](OC(=O)CC)[C@H](OC(=O)CC)[C@H]1OC(=O)CC [Compound 47, (2S,3S,4S,5R,6S)-3,4,5,6-tetrakis(propanoyloxy)oxane-2-carboxylic acid] | C (>75% of the tested compound remaining) | A (<25% of the tested compound remaining) | A (<25% of the tested compound remaining) | – | – |
| CCC(=O)Oc1cc(C(=O)O)cc(OC(=O)CC)c1OC(=O)CC [Compound 201, 3,4,5-tris(propanoyloxy)benzoic acid] | C (>75% of the tested compound remaining) | A (<25% of the tested compound remaining) | A (<25% of the tested compound remaining) | – | – |
| CCCC(=O)OC[C@H]1O[C@H](OC(=O)CCc2c[nH]c3ccccc23)[C@H](OC(=O)CCC)[C@@H](OC(=O)CCC)[C@@H]1OC(=O)CCC [Compound 90, [(2R,3R,4S,5R,6R)-3,4,5-tris(butanoyloxy)-6-{[3-(1H-indol-3-yl)propanoyl]oxy}oxan-2-yl]methyl butanoate] | C (>75% of the tested compound remaining) | B (25-75% of the tested compound remaining) | A (<25% of the tested compound remaining) | – | – |
| CCC(=O)O[C@H]1[C@H](OC(=O)CC)[C@@H](OC(=O)CCc2c[nH]c3ccccc23)O[C@@H](C)[C@H]1OC(=O)CC [Compound 77, (2R,3S,4R,5R,6S)-6-methyl-3,4,5-tris(propanoyloxy)oxan-2-yl 3-(1H-indol-3-yl)propanoate] | C (>75% of the tested compound remaining) | C (>75% of the tested compound remaining) | A (<25% of the tested compound remaining) | – | – |
| CCC(=O)O[C@@H]1[C@@H](OC(=O)CC)[C@H](OC)OC[C@H]1OC(=O)CC [Compound 73, (2R,3R,4S,5R)-2-methoxy-4,5-bis(propanoyloxy)oxan-3-yl propanoate] | C (>75% of the tested compound remaining) | A (<25% of the tested compound remaining) | A (<25% of the tested compound remaining) | – | – |
| CCC(=O)OC[C@H]1O[C@@H](OC(=O)CCc2c[nH]c3ccccc23)[C@H](OC(=O)CC)[C@@H](OC(=O)CC)[C@@H]1OC(=O)CC [Compound 112, [(2R,3R,4S,5R,6S)-6-{[3-(1H-indol-3-yl)propanoyl]oxy}-3,4,5-tris(propanoyloxy)oxan-2-yl]methyl propanoate] | C (>75% of the tested compound remaining) | A (<25% of the tested compound remaining) | A (<25% of the tested compound remaining) | – | – |
| CCCC(=O)Oc1ccc(-c2cc(=O)c3c(OC(=O)CCC)cc(OC(=O)CCC)cc3o2)cc1 [Compound 170, 5-(butanoyloxy)-2-[4-(butanoyloxy)phenyl]-4-oxo-4H-chromen-7-yl butanoate] | B (25-75% of the tested compound remaining) | A (<25% of the tested compound remaining) | A (<25% of the tested compound remaining) | – | – |
| CCCC(=O)O[C@H]1[C@H](OC(=O)CCC)[C@H](OC(=O)CCc2c[nH]c3ccccc23)O[C@@H](C)[C@H]1OC(=O)CCC [Compound 84, (2S,3S,4R,5R,6S)-4,5-bis(butanoyloxy)-2-{[3-(1H-indol-3-yl)propanoyl]oxy}-6-methyloxan-3-yl butanoate] | C (>75% of the tested compound remaining) | A (<25% of the tested compound remaining) | A (<25% of the tested compound remaining) | – | – |

Source: patent US12115178B2, “Acylated active agents and methods of their use for the treatment of autoimmune disorders” (Flagship Pioneering Innovations V, Inc., priority 2018, dated 2024)
